Experimental data taken from BindingDB's records for patent US20240067631 (Cytokinetics, 2024).

Biological target: Nicotinamide phosphoribosyltransferase (Homo sapiens, UniProt P43490)
Experiment: NMN Fluorescence Biochemical Assay
Protocol: Human Recombinant Enzyme Assay: Compounds described herein were assayed for their ability to stimulate the synthesis of nicotinamide mononucleotide (NMN) by the enzyme NAMPT. The human recombinant enzyme assay measures the activation of the enzyme activity by compounds using recombinant enzyme and substrates in a buffered cell-free system. The assay conditions closely mimic cellular environments. Dose responses were measured using an assay to detect the formation of nicotinamide mono-nucleotide. All experiments were performed in the 384-well format. Generally, 0.5 μL of DMSO containing varying concentrations of the test compound was mixed with 10 μL of the enzyme reagent solution. Enzyme reactions were initiated with the addition of 10 μL of a solution containing the substrates. The final assay conditions were as follows: 6 nM human NAMPT, 2.5 mM ATP, […] in 50 mM HEPES, pH 7.2, 1 mM DTT, 1 mM CHAPS 50 mM NaCl, 100 mM MgCl2. Following an incubation of 60 min at ambient temperature, 10 μL of 20% acetophenone in DMSO was added, followed by 10 μL of 2 M KOH and 40 μL of formic acid. The plates were read for fluorescence (Excitation/Emission=355 nm/460 nm) using an EnVision plate reader after 40 mins of incubation at ambient temperature. […]

Sequence of Nicotinamide phosphoribosyltransferase (P43490 whole entry): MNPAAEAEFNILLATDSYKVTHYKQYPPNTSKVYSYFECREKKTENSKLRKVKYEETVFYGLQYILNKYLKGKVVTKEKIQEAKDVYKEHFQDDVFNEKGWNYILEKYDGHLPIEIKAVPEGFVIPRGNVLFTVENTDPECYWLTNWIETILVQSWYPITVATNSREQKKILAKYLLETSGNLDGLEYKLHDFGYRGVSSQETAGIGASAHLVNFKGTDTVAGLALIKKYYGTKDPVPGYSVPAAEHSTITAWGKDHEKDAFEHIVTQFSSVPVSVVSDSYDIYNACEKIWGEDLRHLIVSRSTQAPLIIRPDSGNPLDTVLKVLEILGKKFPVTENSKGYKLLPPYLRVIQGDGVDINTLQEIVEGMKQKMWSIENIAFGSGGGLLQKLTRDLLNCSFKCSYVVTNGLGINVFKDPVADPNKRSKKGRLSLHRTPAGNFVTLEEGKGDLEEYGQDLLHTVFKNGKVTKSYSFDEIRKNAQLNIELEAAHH

Row | EC50 [µM] | Structure (SMILES)
1 | 3.52 | Cc1nc(C(=O)N2CCN(Cc3ccccc3)C(=O)C2)nc(NCCc2cn[nH]c2)c1C [US20240067631, Compound 45]
2 | 4.09 | Cc1ccc([C@@H](C)NC(=O)c2nc(C)c(C)c(NCCc3cn[nH]c3)n2)o1 [US20240067631, Compound 101]
